Assay results reported in US11331327B2, “Antibacterial use of halogenated salicylanilides” (UNION therapeutics A/S, priority 2014, dated 2022).
Converted amounts (≈) assume the structure as drawn. Read-outs that look alike come from different tables or passages of the source.

Tested on: S. aureus clinical isolates and S. aureus ATCC 29213
Assay: MIC assay according to CLSI criteria, Example 2, S. aureus strains
Format: cell-based, Staphylococcus aureus
Settings: Staphylococcus aureus, read-out: MIC
Method: Strains were conserved in Luria Bertani (LB) Broth (S. aureus) or Brain Heart Infusion (BHI) (S. pyogenes) supplemented with glycerol 15% (v/v) at −80° C., and reactivated by isolation on LB (S. aureus) or BHI (S. pyogenes) agar plates. Strains were cultivated in Mueller Hinton (MH) Broth-cation adjusted (S. aureus) or BHI (S. pyogenes). All strains were cultivated aerobically (microaerobically for S. pyogenes strains) at 37° C.
Bacterial cultures were stopped in their exponential growth phase and plates were inoculated with the approximate concentration of 5×10^5 cells per well. Plates were incubated at 37° C. for 18 hours (S. aureus) or 24 hours (S. pyogenes).

CC(=O)O[C@H]1C[C@@]2(C)[C@@H](C[C@@H](O)[C@H]3[C@@]4(C)CC[C@@H](O)[C@@H](C)[C@@H]4CC[C@@]32C)/C1=C(\CCC=C(C)C)C(=O)O [Fusidic acid]
MIC (ATCC 29213 / MRSA, strain MRSA 15): > 16 µg/mL
MIC (ATCC 29213 / MRSA, strain MRSA 16): 0.25 µg/mL (≈ 0.484 µM)
MIC (ATCC 29213 / MRSA, strain MRSA 17): 4 µg/mL (≈ 7.74 µM)
MIC (ATCC 29213 / MRSA, strain MRSA 18): 0.25 µg/mL (≈ 0.484 µM)
MIC (ATCC 29213 / MRSA, strain MRSA 19): 0.125 µg/mL (≈ 0.242 µM)
MIC (ATCC 29213 / MRSA, strain MRSA 20): 0.125 µg/mL (≈ 0.242 µM)
MIC (ATCC 29213 / MRSA, strain MRSA 21): 0.125 µg/mL (≈ 0.242 µM)
MIC (ATCC 29213 / MRSA, strain MRSA 22): > 16 µg/mL
MIC (ATCC 29213 / MRSA, strain MRSA 23): 0.25 µg/mL (≈ 0.484 µM)
MIC (ATCC 29213 / MRSA, strain MRSA 24): 0.25 µg/mL (≈ 0.484 µM)
MIC (ATCC 29213 / MRSA, strain MRSA 25): 16 µg/mL (≈ 31 µM)
MIC (ATCC 29213 / MRSA, strain MRSA 26): 0.5 µg/mL (≈ 0.968 µM)
MIC (ATCC 29213 / MRSA, strain MRSA 27): 0.25 µg/mL (≈ 0.484 µM)
MIC (ATCC 29213 / MRSA, strain MRSA 27b): 8 µg/mL (≈ 15.5 µM)
MIC (ATCC 29213 / MRSA, strain MRSA 28): 0.06 µg/mL (≈ 0.116 µM)
MIC (ATCC 29213 / MRSA, strain MRSA 29): 4 µg/mL (≈ 7.74 µM)
MIC (ATCC 29213 / MRSA, strain MRSA 30): 0.125 µg/mL (≈ 0.242 µM)
MIC (ATCC 29213 / MRSA, strain MRSA 31): 0.25 µg/mL (≈ 0.484 µM)
MIC (ATCC 29213 / MRSA, strain MRSA 32): 0.5 µg/mL (≈ 0.968 µM)
MIC (ATCC 29213 / MRSA, strain MRSA 33): 0.5 µg/mL (≈ 0.968 µM)
MIC (ATCC 29213 / MRSA, strain MRSA 34): 0.25 µg/mL (≈ 0.484 µM)
MIC (ATCC 29213 / MRSA, strain MRSA 35): 16 µg/mL (≈ 31 µM)
MIC (ATCC 29213 / MRSA, strain MRSA 36): 8 µg/mL (≈ 15.5 µM)
MIC (ATCC 29213 / MRSA, strain MRSA 37): 0.5 µg/mL (≈ 0.968 µM)
MIC (ATCC 29213 / MRSA, strain MRSA 38): 8 µg/mL (≈ 15.5 µM)
MIC (ATCC 29213 / MRSA, strain MRSA 39): 8 µg/mL (≈ 15.5 µM)
MIC (ATCC 29213 / MRSA, strain MRSA 40): 0.125 µg/mL (≈ 0.242 µM)
MIC (ATCC 29213 / MRSA, strain MRSA 41): > 16 µg/mL
MIC (ATCC 29213 / MRSA, strain MRSA 42): 0.25 µg/mL (≈ 0.484 µM)
MIC (ATCC 29213 / MRSA, strain MRSA 43): 0.125 µg/mL (≈ 0.242 µM)
MIC (ATCC 29213 / MRSA, strain MRSA 44): 4 µg/mL (≈ 7.74 µM)
MIC (ATCC 29213 / MRSA, strain MRSA 45): 0.06 µg/mL (≈ 0.116 µM)
MIC (ATCC 29213 / MRSA, strain MRSA 46): 0.06 µg/mL (≈ 0.116 µM)
MIC (ATCC 29213 / MRSA, strain MRSA 47): 0.06 µg/mL (≈ 0.116 µM)
MIC (ATCC 29213 / MRSA, strain MRSA 48): 2 µg/mL (≈ 3.87 µM)
MIC (ATCC 29213 / MRSA, strain MRSA 49): 0.25 µg/mL (≈ 0.484 µM)
MIC (ATCC 29213 / MRSA, strain MRSA 50): 0.03 µg/mL (≈ 0.0581 µM)
MIC (ATCC 29213 / MRSA, strain MRSA 51): 0.13 µg/mL (≈ 0.252 µM)
MIC (ATCC 29213 / MRSA, strain MRSA 52): 0.06 µg/mL (≈ 0.116 µM)
MIC (ATCC 29213 / MRSA, strain MRSA 53): 0.25 µg/mL (≈ 0.484 µM)
MIC (ATCC 29213 / MRSA, strain MRSA 54): 0.125 µg/mL (≈ 0.242 µM)
MIC (ATCC 29213 / MRSA, strain MRSA 55): 4 µg/mL (≈ 7.74 µM)
MIC (ATCC 29213 / MRSA, strain MRSA 56): 0.06 µg/mL (≈ 0.116 µM)
MIC (ATCC 29213 / MRSA, strain MRSA 57): 0.125 µg/mL (≈ 0.242 µM)
MIC (ATCC 29213 / MRSA, strain MRSA 58): 4 µg/mL (≈ 7.74 µM)
MIC (ATCC 29213 / MRSA, strain MRSA 59): 0.06 µg/mL (≈ 0.116 µM)
MIC (ATCC 29213 / MRSA, strain MRSA 60): 8 µg/mL (≈ 15.5 µM)
MIC (ATCC 29213 / MRSA, strain MRSA 61): 0.06 µg/mL (≈ 0.116 µM)
MIC (ATCC 29213 / MRSA, strain MRSA 62): 0.06 µg/mL (≈ 0.116 µM)
MIC (ATCC 29213 / MRSA, strain MRSA 63): 0.125 µg/mL (≈ 0.242 µM)
MIC (ATCC 29213 / MRSA, strain MRSA 64): 0.25 µg/mL (≈ 0.484 µM)
MIC (ATCC 29213 / MRSA, strain MRSA 65): 0.06 µg/mL (≈ 0.116 µM)
MIC (ATCC 29213 / MRSA, strain MRSA 66): 0.06 µg/mL (≈ 0.116 µM)
MIC (ATCC 29213 / MRSA, strain MRSA 67): 0.25 µg/mL (≈ 0.484 µM)
MIC (ATCC 29213 / MRSA, strain MRSA 68): 0.125 µg/mL (≈ 0.242 µM)
MIC (ATCC 29213 / MRSA, strain MRSA 69): 4 µg/mL (≈ 7.74 µM)
MIC (ATCC 29213 / MRSA, strain MRSA 70): 8 µg/mL (≈ 15.5 µM)
MIC (ATCC 29213 / MRSA, strain MRSA 71): 0.06 µg/mL (≈ 0.116 µM)
MIC (ATCC 29213 / MRSA, strain MRSA 72): 16 µg/mL (≈ 31 µM)
MIC (ATCC 29213 / MRSA, strain MRSA 73): 0.25 µg/mL (≈ 0.484 µM)
MIC (ATCC 29213 / MRSA, strain MRSA 74): 0.25 µg/mL (≈ 0.484 µM)
MIC (ATCC 29213 / MRSA, strain MRSA 75): 0.5 µg/mL (≈ 0.968 µM)
MIC (ATCC 29213 / MRSA, strain MRSA 76): 0.25 µg/mL (≈ 0.484 µM)
MIC (ATCC 29213 / MRSA, strain MRSA 77): 16 µg/mL (≈ 31 µM)
MIC (ATCC 29213 / MRSA, strain MRSA 78): 0.125 µg/mL (≈ 0.242 µM)
MIC (ATCC 29213 / MRSA, strain MRSA 79): 0.5 µg/mL (≈ 0.968 µM)
MIC (ATCC 29213 / MRSA, strain MRSA 80): 0.125 µg/mL (≈ 0.242 µM)
MIC (ATCC 29213 / MRSA, strain MRSA 81): 0.25 µg/mL (≈ 0.484 µM)
MIC (ATCC 29213 / MRSA, strain MRSA 82): 8 µg/mL (≈ 15.5 µM)
MIC (ATCC 29213 / MRSA, strain MRSA 83): 0.06 µg/mL (≈ 0.116 µM)
MIC (ATCC 29213 / MRSA, strain MRSA 84): 8 µg/mL (≈ 15.5 µM)
MIC (ATCC 29213 / MRSA, strain MRSA 85): 4 µg/mL (≈ 7.74 µM)
MIC (ATCC 29213 / MRSA, strain MRSA 86): > 16 µg/mL
MIC (ATCC 29213 / MRSA, strain MRSA 87): 0.125 µg/mL (≈ 0.242 µM)
MIC (ATCC 29213 / MRSA, strain MRSA 88): 0.06 µg/mL (≈ 0.116 µM)
MIC (ATCC 29213 / MRSA, strain MRSA 89): 0.06 µg/mL (≈ 0.116 µM)
MIC (ATCC 29213 / MRSA, strain MRSA 90): 16 µg/mL (≈ 31 µM)
MIC (ATCC 29213 / MRSA, strain MRSA 91): 0.25 µg/mL (≈ 0.484 µM)
MIC (ATCC 29213 / MRSA, strain MRSA 92): 8 µg/mL (≈ 15.5 µM)
MIC (ATCC 29213 / MRSA, strain MRSA 93): 0.02 µg/mL (≈ 0.0387 µM)
MIC (ATCC 29213 / MRSA, strain MRSA 94): 0.125 µg/mL (≈ 0.242 µM)
MIC (ATCC 29213 / MRSA, strain MRSA 95): 8 µg/mL (≈ 15.5 µM)
MIC (ATCC 29213 / MRSA, strain MRSA 96): 0.125 µg/mL (≈ 0.242 µM)
MIC (ATCC 29213 / MRSA, strain MRSA 97): 8 µg/mL (≈ 15.5 µM)
MIC (ATCC 29213 / MRSA, strain MRSA 98): 0.06 µg/mL (≈ 0.116 µM)
MIC (ATCC 29213 / MRSA, strain MRSA 99): 0.125 µg/mL (≈ 0.242 µM)
MIC (ATCC 29213 / MRSA, strain MRSA 100): 0.125 µg/mL (≈ 0.242 µM)
MIC (ATCC 29213 / MRSA, strain MRSA 101): 8 µg/mL (≈ 15.5 µM)
MIC (ATCC 29213 / MRSA, strain MRSA 102): 0.06 µg/mL (≈ 0.116 µM)
MIC (ATCC 29213 / MRSA, strain MRSA 103): 8 µg/mL (≈ 15.5 µM)
MIC (ATCC 29213 / MRSA, strain MRSA 104): 0.25 µg/mL (≈ 0.484 µM)
MIC (ATCC 29213 / MRSA, strain MRSA 105): 0.125 µg/mL (≈ 0.242 µM)
MIC (ATCC 29213 / MRSA, strain MRSA 106): 0.125 µg/mL (≈ 0.242 µM)
MIC (ATCC 29213 / MRSA, strain MRSA 107): 0.25 µg/mL (≈ 0.484 µM)
MIC (ATCC 29213 / MRSA, strain MRSA 108): 4 µg/mL (≈ 7.74 µM)
MIC (ATCC 29213 / MRSA, strain MRSA 109): 0.25 µg/mL (≈ 0.484 µM)
MIC (ATCC 29213 / MRSA, strain MRSA 110): 0.06 µg/mL (≈ 0.116 µM)
MIC (ATCC 29213 / MRSA, strain MRSA 111): 8 µg/mL (≈ 15.5 µM)
MIC (ATCC 29213 / MRSA, strain MRSA 112): 0.06 µg/mL (≈ 0.116 µM)
MIC (ATCC 29213 / MRSA, strain MRSA 113): 0.125 µg/mL (≈ 0.242 µM)
MIC (ATCC 29213 / MSSA, strain MSSA 01): 4 µg/mL (≈ 7.74 µM)
MIC (ATCC 29213 / MSSA, strain MSSA 02): 4 µg/mL (≈ 7.74 µM)
MIC (ATCC 29213 / NEWMAN, strain Newman): 0.25 µg/mL (≈ 0.484 µM)
